One data set deals with RD cells. The data set can be described thus: Detection of cytotoxicity in RD cells (CellTiter-Glo). In kind it is cell-based. As to conditions: 4 days, CellTiter-Glo, median toxic dose. Here is the method:
Detection of Cytotoxicity:
(1) The compound to be tested was diluted to a concentration of 400 μM with the cell maintenance solution, and 3-fold gradient dilution was carried out to obtain 10 concentrations in total.
(2) The diluted compound was added to a 96-well plate with white wall and transparent bottom, with 100 μL per well. An equal volume of the cell maintenance solution was added to the cell control group.
(3) RD cells were inoculated into the above 96-well plate at a concentration of 1*10^5/mL, with 100 μL per well, to reach a final volume of 200 μL per well, and the final concentration of drug was 0.5 times the pretreatment concentration.
(4) The RD cells were cultured at 37° C. for 4 days for testing.
(5) The Buffer of CellTiter-Glo® luminescent cell viability assay reagent was mixed with the substrate in the dark to prepare a working solution.
(6) The culture medium in the plate was discarded, the plate was dried by patting, 100 μL of the detection reagent was added to each well, and the 96-well plate was shaken on an orbital shaker for 4 minutes to induce cell lysis. After keeping in the dark and subjecting to signal stabilization for 15 minutes, the chemiluminescence unit was detected, and the plate reading program was performed according to the CellTiter-Glo preset program.
(§1) The formula for calculating the inhibition rates of drug at different dilution degrees was as follows: inhibition rate (%)=(average value of cell control group−value of experimental group)/(average value of cell control group−minimum value of experimental group)*100
(§2) The inhibition rate-concentration curve was fitted to S-curve by using origin8.0 software, and the IC50 value of the compound to be tested was calculated. The same method was used to calculate the TD50 value, and the selection index SI=TD50/IC50 was calculated according to the half maximal inhibitory concentration IC50 and the median toxic dose TD50.
On the technique in general: ATP-based viability assays read luminescence as a measure of living cells.

Data set [1] has as its system Enterovirus 71 (EV71) H strain. The data set can be described thus: In vitro anti-EV71 activity (antiviral activity in RD cells, CellTiter-Glo). In kind it is cell-based. The conditions noted are these: for in vitro anti-EV71 activity, in words: EV71, RD cells; for IC50: Enterovirus A, 96 h, EV71 H strain, RD cells, 4 days, CellTiter-Glo, read-out: IC50. The procedure:
According to the mass and molecular weight of the compound to be tested, the compound to be tested was dissolved to 100 mM (mmol/L) with DMSO.
Detection of Antiviral Activity:
(1) First, the compound to be tested was diluted to 800 μM with cell maintenance solution (DMEM+2% FBS, Gibco, catalog numbers: 11995-065, 1600-044), and three-fold gradient dilution was performed to prepare 10 concentrations in total. The diluted compound was added to a 96-well plate with white wall and transparent bottom, 50 μl per well. To both the cell control group and the virus control group, an equal volume of the cell maintenance solution was added.
(2) EV71 virus (purchased from ATCC) was taken out from the −80° C. refrigerator and equilibrated to room temperature.
(3) The virus seed was diluted with a virus growth solution (DMEM+2% FBS, Gibco, catalog numbers: 11995-065, 1600-044) to 100TCID50, the diluted virus seed was added to the 96-well plate of (1), with […] per well. The same volume of the virus growth solution was added to the cell control group.
(4) RD cells (purchased from ATCC) were inoculated at a concentration of 1*10^5/mL into the 96-well plate of (1), with 100 μL per well, to reach a final volume of 200 μL per well. The final concentration of drug was 0.25 times the initial concentration.
(5) RD cells were cultured at 37° C. for 4 days for testing.
(6) The Buffer of CellTiter-Glo® luminescent cell viability assay reagent (Promega) was mixed with the substrate in the dark to prepare a working solution.
(7) The culture medium in the plate was discarded, the plate was dried by patting, 100 μL of the detection reagent was added to each well, and the 96-well plate was shaken on an orbital shaker for 4 minutes to induce cell lysis. After keeping in the dark and subjecting to signal stabilization for 15 minutes, the chemiluminescence unit was detected by using MD5 microplate reader (Molecular Devices), and the plate reading program was performed according to the CellTiter-Glo preset program.
The inhibition rate-concentration curve was fitted to S-curve by using origin8.0 software to calculate the IC50 value of the compound to be tested.
as §1, §2

Molecules are shown by their SMILES.

For the molecule `Nc1cncc(Nc2ccc3ncc4ccc(=O)n(-c5cccc(C(F)(F)F)c5)c4c3c2)n1` [HTL-6-28, 9-[2-(6-aminopyrazinyl)]imino-2-oxo-1-[3-(trifluoromethyl)phenyl]-1,2-dihydrobenzo[h][1,6]naphthyridine], the melting point was in the range of 192 to 194 °C. The same molecule gave a TD50 in the data set with RD cells of 8.67 ± 0.97 µM. Also, in data set [1], the “in vitro anti-EV71 activity, in words” value is listed as “moderate activity” and the IC50 was found to be 3.7 ± 0.03 µM.

The molecule `O=c1oc2cnc3ccc(-c4ccc(F)nc4)cc3c2n1-c1cccc(C(F)(F)F)c1` [HTL-5-28, 8-[3-(6-fluoro)pyridyl]-1-[3-(trifluoromethyl)phenyl]oxazolo[5,4-c]quinolin-2(1H)-one] showed a melting point of 262 to 263 °C. The molecule further came in with a TD50 in the data set on RD cells above 200 µM. The IC50 in data set [1] was above 200 µM.

As to `CC(C)(C)c1ccc(Nc2ccc3ncc4ccc(=O)n(-c5cccc(C(F)(F)F)c5)c4c3c2)cc1` [HTL-6-18, 9-(4-tert-butylphenyl)imino-2-oxo-1-[3-(trifluoromethyl)phenyl]-1,2-dihydrobenzo[h][1,6]naphthyridine], the melting point was 141 to 142 °C. For the same molecule, in the data set on RD cells, the TD50 is 7.04 ± 0.68 µM. Besides, the IC50 in data set [1] was above 200 µM.

Regarding `CC(=O)/C=C/c1cnc2ccc(-c3ccc(F)cc3F)cc2c1Nc1cccc(C(F)(F)F)c1` [HTL-3-33, (E)-6-(2,4-difluoro)phenyl-4-[3-(trifluoromethyl)phenyl]aminoquinoline-3-butenone], the melting point is 162 to 164 °C. The same molecule displayed a TD50 in the data set on RD cells of 0.72 ± 0.66 µM. For the same molecule, the IC50 in data set [1] was above 200 µM.

On to `NC(=O)/C=C/c1ccc2ncc3ccc(=O)n(-c4cccc(C(F)(F)F)c4)c3c2c1` [HTL-7-24, (E)-9-(2-carbamoyl-vinyl)-2-oxo-1-[3-(trifluoromethyl)phenyl]-1,2-dihydrobenzo[h][1,6]naphthyridine], for which the melting point fell in the range of 307 to 308 °C. Moreover, in the data set on RD cells, the TD50 was determined as 0.15 ± 0.01 µM. In data set [1], the “in vitro anti-EV71 activity, in words” value is “strong inhibitory activity” and the half-inhibitory concentration (IC50) was 0.09 ± 0.01 µM.

`O=C(Nc1ccc(-c2ccc3ncc4oc(=O)n(-c5cccc(C(F)(F)F)c5)c4c3c2)cn1)OCc1ccccc1` [HTL-7-23, 8-[3-(6-benzyloxyamido)pyridyl]-1-[3-(trifluoromethyl)phenyl]oxazolo[5,4-c]quinolin-2(1H)-one] registered a melting point of 284 to 286 °C. Besides, in the data set on RD cells, the TD50 was above 200 µM. Besides, in data set [1], the IC50 was above 200 µM.

The molecule `CC(=O)/C=C/c1cnc2ccc(-c3ccoc3)cc2c1Nc1cccc(C(F)(F)F)c1` [HTL-3-22, (E)-6-(3-furyl)-4-[3-(trifluoromethyl)phenyl]aminoquinoline-3-butenone] came in with a melting point of 151 to 154 °C. Besides, the TD50 in the data set on RD cells was 1.55 ± 1.03 µM. Also, in data set [1], the IC50 was above 200 µM.

As to `CCOC(=O)/C=C/c1ccc2ncc3ccc(=O)n(-c4cccc(C(F)(F)F)c4)c3c2c1` [HTL-7-26, (E)-9-[2-ethoxycarbonyl-vinyl]-2-oxo-1-[3-(trifluoromethyl)phenyl]-1,2-dihydrobenzo[h][1,6]naphthyridine], the melting point fell in the range of 210 to 212 °C. The molecule further yielded a TD50 with RD cells of 1.29 ± 0.57 µM. In data set [1], the “in vitro anti-EV71 activity, in words” value was “moderate inhibitory activity” and the IC50 was 0.28 ± 0.2 µM.

In turn, `CCOC(=O)CC/C=C/c1ccc2ncc3oc(=O)n(-c4cccc(C(F)(F)F)c4)c3c2c1` [HTL-6-38, (E)-8-(4-ethoxycarbonyl-but-1-enyl)-1-[3-(trifluoromethyl)phenyl]oxazolo [5,4-c]quinolin-2(1H)-one] yielded a melting point of 162 to 164 °C. For the same molecule, the TD50 in the data set with RD cells turned out to be 22.74 ± 0.01 µM. Besides, in data set [1], the IC50 is above 200 µM.

Regarding `CC(=O)/C=C/c1cnc2ccc(-c3cccc(N)c3)cc2c1Nc1cccc(C(F)(F)F)c1` [HTL-2-42, (E)-6-(3-aminophenyl)-4-[3-(trifluoromethyl)phenyl]aminoquinoline-3-butenone], the melting point fell in the range of 184 to 186 °C. The molecule also returned a TD50 in the data set with RD cells above 200 µM. In data set [1], the IC50 was above 200 µM.

Turning to `O=c1ccc2cnc3ccc(Nc4ccc(Cl)cc4)cc3c2n1-c1cccc(C(F)(F)F)c1` [HTL-6-25, 9-(4-chlorophenyl)imino-2-oxo-1-[3-(trifluoromethyl)phenyl]-1,2-dihydrobenzo[h][1,6]naphthyridine], the melting point fell in the range of 212 to 213 °C. Moreover, the TD50 with RD cells amounted to 4.56 ± 0.26 µM. Also, the IC50 in data set [1] is above 200 µM.

For `O=c1ccc2cnc3ccc(Nc4ccc(F)cc4)cc3c2n1-c1cccc(C(F)(F)F)c1` [HTL-6-23, 9-(4-fluorophenyl)imino-2-oxo-1-[3-(trifluoromethyl)phenyl]-1,2-dihydrobenzo[h][1,6]naphthyridine], the melting point is 176 to 179 °C. Also, in the data set on RD cells, the TD50 stood at 7.22 ± 0.47 µM. The IC50 in data set [1] is above 200 µM.

In turn, `CC(=O)Nc1ccc(Nc2ccc3ncc4ccc(=O)n(-c5cccc(C(F)(F)F)c5)c4c3c2)cc1` [HTL-6-27, 9-(4-acetylaminophenyl)imino-2-oxo-1-[3-(trifluoromethyl)phenyl]-1,2-dihydrobenzo[h][1,6]naphthyridine] gave a melting point of 175 to 177 °C. This molecule yielded a TD50 in the data set with RD cells of 10.65 ± 0.57 µM. Besides, in data set [1], the “in vitro anti-EV71 activity, in words” value is “moderate activity” and the IC50 is 7.14 ± 3.21 µM.

On to `CC(=O)/C=C/c1cnc2ccc(-c3ccc(CC(C)C)cc3)cc2c1Nc1cccc(C(F)(F)F)c1` [HTL-3-41, (E)-6-(4-isobutyl)phenyl-4-[3-(trifluoromethyl)phenyl]aminoquinoline-3-butenone], for which the melting point was in the range of 187 to 191 °C. In the data set with RD cells, this molecule had a TD50 of 0.99 ± 0.24 µM. Further, the 50% inhibitory concentration (IC50) in data set [1] is above 200 µM.

Take `O=c1oc2cnc3ccc(-c4cccs4)cc3c2n1-c1cccc(C(F)(F)F)c1` [HTL-5-26, 8-(2-thienyl)-1-[3-(trifluoromethyl)phenyl]oxazolo[5,4-c]quinolin-2(1H)-one]: the melting point fell in the range of 272 to 274 °C. In the data set on RD cells, the TD50 is above 200 µM. The IC50 in data set [1] was above 200 µM.

In the case of `CC(=O)/C=C/c1cnc2ccc(-c3cncc(C#N)c3)cc2c1Nc1cccc(C(F)(F)F)c1` [HTL-3-46, (E)-6-[3-(5-cyano)pyridyl]-4-[3-(trifluoromethyl)phenyl]aminoquinoline-3-butenone], the melting point was in the range of 227 to 229 °C. In addition, the TD50 in the data set on RD cells is 3.59 ± 2.46 µM. Moreover, the IC50 in data set [1] was above 200 µM.

In turn, `N#C/C=C/c1ccc2ncc3oc(=O)n(-c4cccc(C(F)(F)F)c4)c3c2c1` [HTL-6-32, (E)-8-(2-cyano-vinyl)-1-[3-(trifluoromethyl)phenyl]oxazolo[5,4-c]quinolin-2(1H)-one] had a melting point of 235 to 237 °C. In the data set with RD cells, this molecule yielded a TD50 above 200 µM. Further, in data set [1], the half-maximal inhibitory concentration (IC50) was above 200 µM.

With `CC(=O)/C=C/c1cnc2ccc(-c3ccc(C(N)=O)cc3)cc2c1Nc1cccc(C(F)(F)F)c1` [HTL-3-45, (E)-6-(4-carbamoyl)phenyl-4-[3-(trifluoromethyl)phenyl]aminoquinoline-3-butenone], the melting point is 211 to 214 °C. The molecule further returned a TD50 in the data set on RD cells of 2.42 ± 0.06 µM. In addition, the IC50 in data set [1] is above 200 µM.

In general, IC50 refers to the concentration needed to halve the response being measured. In general, melting point refers to the temperature, or range, at which the solid turns liquid.

The values are drawn from patent publication US20220220106A1, “QUINOLINE COMPOUNDS AND PHARMACEUTICAL COMPOSITIONS AND USES THEREOF” (Academy of Military Medical Sciences, priority 2019, published 2022).
